Drawing on patent EP4206196A1, “PYRIMIDINE SUBSTITUTED DERIVATIVES AS TYK2 INHIBITORS” (Almirall S.A., priority 2021, dated 2023), this text covers Kd and IC50 for 26 compounds.

The target in experiment [1] is T1, TYK2 (JH2domain-pseudokinase) (Homo sapiens, UniProt P29597).
T1 construct: TYK2 (JH2domain-pseudokinase)-tagged T7 phage strains were prepared in an E. coli host derived from the BL21 strain; made in house; host or cells: E. coli BL21-derived host (T7 phage) or HEK-293 cells
In words: TYK2 JH2 domain binding assay (KINOMEscan). In a few lines:
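Competition binding of DNA-tagged TYK2 JH2 pseudokinase domain against immobilised affinity ligand, 1 h at room temperature in SeaBlock/PBS/Tween/DTT buffer with about 1% DMSO. Bound kinase eluted and quantified by qPCR. Kd taken from 11-point 3-fold series, usually 30,000 nM top, fitted by Levenberg-Marquardt nonlinear least squares.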

Experiment [2] has as its system STAT1/3 through TYK2/JAK1. In words: IFNa induced STAT phosphorylation in HEK293 cells (SIE-bla reporter gene). The format is cell-based. To be noted: Homo sapiens, HEK293; HEK293T-sie-bla cells, IFNa at EC80, 4 hours; read-out: Inhibition of IFNa induced STAT phosphorylation HEK293 cells IC50. In a few lines: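 HEK293T cells carrying a SIE-driven β-lactamase reporter were co-treated with compound (1/5 serial dilution, 10 points, 0.1% DMSO final) and IFNa at EC80 for 4 h at 37°C. β-Lactamase substrate was added to stop the stimulation, followed by overnight dark incubation and FRET read. IC50 from a four-parameter logistic fit.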
For orientation: A reporter such as luciferase makes a cellular process visible.

T1 sequence (P29597 589-875 limits assumed): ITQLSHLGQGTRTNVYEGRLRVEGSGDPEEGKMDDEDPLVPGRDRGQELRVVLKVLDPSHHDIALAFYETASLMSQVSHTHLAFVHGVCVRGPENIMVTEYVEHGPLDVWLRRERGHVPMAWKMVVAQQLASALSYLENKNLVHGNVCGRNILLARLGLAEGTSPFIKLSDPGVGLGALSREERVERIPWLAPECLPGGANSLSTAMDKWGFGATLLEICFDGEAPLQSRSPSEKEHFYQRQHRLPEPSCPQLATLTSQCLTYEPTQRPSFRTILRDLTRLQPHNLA

Usually Kd stands for the equilibrium constant for the complex coming apart. Broadly, the IC50 is the concentration needed to halve the response being measured. In the case of `Cc1cc(Nc2cc(Nc3ccc(C4=CCOCC4)cc3N(C)S(C)(=O)=O)ncn2)nc(C)n1` [Example 95, N-[5-(3,6-dihydro-2H-pyran-4-yl)-2-[[6-[(2,6-dimethylpyrimidin-4-yl)amino]pyrimidin-4-yl]amino]phenyl]-N-methyl-methanesulfonamide], the Kd in experiment [1] is less than 0.2 nM. The IC50 in experiment [2] is less than 10 nM.

The compound `Cc1cc(Nc2cc(Nc3c(F)cc(-c4cnn(C)c4C)cc3S(C)(=O)=O)ncn2)nc(C)n1` [Example 96, N4-[4-(1,5-dimethylpyrazol-4-yl)-2-fluoro-6-methylsulfonyl-phenyl]-N6-(2,6-dimethylpyrimidin-4-yl)pyrimidine-4,6-diamine] came in with a Kd in experiment [1] of 1 to 10 nM. In addition, the IC50 in experiment [2] was 100 to 1000 nM.

`Cc1cc(Nc2cc(Nc3ccc(-c4nc(C)n(C)n4)cc3N(C)S(C)(=O)=O)ncn2)nc(C)n1` [Example 97, N-[2-[[6-[(2,6-dimethylpyrimidin-4-yl)amino]pyrimidin-4-yl]amino]-5-(1,5-dimethyl-1,2,4-triazol-3-yl)phenyl]-N-methyl-methanesulfonamide] had a Kd in experiment [1] of less than 0.2 nM. In addition, the IC50 in experiment [2] was in the range of 10 to 100 nM.

The compound `Cc1cc(Nc2cc(Nc3ccc(-c4nc(C)nn4C)cc3N(C)S(C)(=O)=O)ncn2)nc(C)n1` [Example 99, N-[2-[[6-[(2,6-dimethylpyrimidin-4-yl)amino]pyrimidin-4-yl]amino]-5-(2,5-dimethyl-1,2,4-triazol-3-yl)phenyl]-N-methyl-methanesulfonamide] had a dissociation constant (Kd) in experiment [1] of 0.2 to 1 nM. Besides, the IC50 in experiment [2] fell in the range of 10 to 100 nM.

In the case of `Cc1cc(C)c(N(C)S(C)(=O)=O)c(Nc2cc(Nc3cc(C)ncn3)ncn2)c1` [Example 100, N-[2,4-dimethyl-6-[[6-[(6-methylpyrimidin-4-yl)amino]pyrimidin-4-yl]amino]phenyl]-N-methylmethanesulfonamide], in experiment [1], the Kd is more than 10 nM. The IC50 in experiment [2] was more than 1000 nM.

For `Cc1cc(Nc2cc(Nc3ccccc3N(C)S(C)(=O)=O)ncn2)ncc1F` [Example 101, N-[2-[[6-[(5-fluoro-4-methyl-2-pyridyl)amino]pyrimidin-4-yl]amino]phenyl]-N-methyl-methanesulfonamide], in experiment [1], the Kd is less than 0.2 nM. For the same compound, the IC50 in experiment [2] was 10 to 100 nM.

Regarding `CN(c1ccccc1Nc1cc(Nc2ccc(C#N)cn2)ncn1)S(C)(=O)=O` [Example 102, N-[2-[[6-[(5-cyano-2-pyridyl)amino]pyrimidin-4-yl]amino]phenyl]-N-methyl-methanesulfonamide], in experiment [1], the Kd was in the range of 0.2 to 1 nM. The IC50 in experiment [2] is 10 to 100 nM.

In experiment [1], `COc1c(Nc2cc(Nc3cc(C)ncn3)ncn2)cc(C)cc1-c1ncn(C)n1` [Example 104, 4-N-[2-methoxy-5-methyl-3-(1-methyl-1,2,4-triazol-3-yl)phenyl]-6-N-(6-methylpyrimidin-4-yl)pyrimidine-4,6-diamine] gave a Kd of 0.2 to 1 nM. The IC50 in experiment [2] lay in the range of 100 to 1000 nM.

In experiment [1], `Cc1cc(Nc2cc(Nc3ccc(C4CCCOC4)cc3N(C)S(C)(=O)=O)ncn2)nc(C)n1` (stereo not shown) [Example 105, N-[2-[[6-[(2,6-dimethylpyrimidin-4-yl)amino]pyrimidin-4-yl]amino]-5-tetrahydropyran-3-yl-phenyl]-N-methyl-methanesulfonamide] yielded a Kd of less than 0.2 nM. For the same compound, the IC50 in experiment [2] is less than 10 nM.

Consider `Cc1cc(Nc2cc(Nc3ccc(C4CCOCC4)cc3N(C)S(C)(=O)=O)ncn2)nc(C)n1` [Example 106, N-[2-[[6-[(2,6-dimethylpyrimidin-4-yl)amino]pyrimidin-4-yl]amino]-5-tetrahydropyran-4-yl-phenyl]-N-methyl-methanesulfonamide], for which the Kd in experiment [1] is less than 0.2 nM. The concentration for half-maximal inhibition (IC50) in experiment [2] fell in the range of 10 to 100 nM.

Take `Cc1cc(Nc2cc(Nc3ccc(C4CCCCO4)cc3N(C)S(C)(=O)=O)ncn2)nc(C)n1` (stereo not shown) [Example 107, N-[2-[[6-[(2,6-dimethylpyrimidin-4-yl)amino]pyrimidin-4-yl]amino]-5-tetrahydropyran-2-yl-phenyl]-N-methyl-methanesulfonamide]: the Kd in experiment [1] is less than 0.2 nM. Further, the IC50 in experiment [2] was less than 10 nM.

Turning to `C=Cc1ccc(Nc2cc(Nc3cc(C)nc(C)n3)ncn2)c(N(C)S(C)(=O)=O)c1` [Example 108, N-[2-[[6-[(2,6-dimethylpyrimidin-4-yl)amino]pyrimidin-4-yl]amino]-5-vinyl-phenyl]-N-methyl-methanesulfonamide], the Kd in experiment [1] is less than 0.2 nM. For the same compound, the IC50 in experiment [2] is less than 10 nM.

Take `Cc1cc(Nc2cc(Nc3ccc(Cc4ccccc4)cc3N(C)S(C)(=O)=O)ncn2)nc(C)n1` [Example 109, N-[5-benzyl-2-[[6-[(2,6-dimethylpyrimidin-4-yl)amino]pyrimidin-4-yl]amino]phenyl]-N-methyl-methanesulfonamide]: the dissociation constant (Kd) in experiment [1] was less than 0.2 nM. In addition, in experiment [2], the IC50 was less than 10 nM.

Take `Cc1cc(Nc2cc(Nc3ccc(C4CCNC4)cc3N(C)S(C)(=O)=O)ncn2)nc(C)n1` (stereo not shown) [Example 110, N-[2-[[6-[(2,6-dimethylpyrimidin-4-yl)amino]pyrimidin-4-yl]amino]-5-pyrrolidin-3-yl-phenyl]-N-methyl-methanesulfonamide]: the Kd in experiment [1] lay in the range of 1 to 10 nM. For the same compound, in experiment [2], the IC50 fell in the range of 100 to 1000 nM.

As to `Cc1cc(Nc2cc(Nc3ccc(C4CCOC4)cc3N(C)S(C)(=O)=O)ncn2)nc(C)n1` (stereo not shown) [Example 111, N-[2-[[6-[(2,6-dimethylpyrimidin-4-yl)amino]pyrimidin-4-yl]amino]-5-tetrahydrofuran-3-yl-phenyl]-N-methyl-methanesulfonamide], the Kd in experiment [1] was less than 0.2 nM. Further, the IC50 in experiment [2] is 10 to 100 nM.

For the compound `CN=S(C)(=O)c1ccccc1Nc1cc(Nc2cc(C)nc(C)n2)ncn1` (stereo not shown) [Example 112, N6-(2,6-dimethylpyrimidin-4-yl)-N4-[2-(N,S-dimethylsulfonimidoyl)phenyl]pyrimidine-4,6-diamine], the Kd in experiment [1] is less than 0.2 nM. For the same compound, in experiment [2], the IC50 was 10 to 100 nM.

`CN=S(C)(=O)c1cc(-c2cnn(C)c2C)ccc1Nc1cc(Nc2cc(C)nc(C)n2)ncn1` (stereo not shown) [Example 113, N4-[4-(1,5-dimethylpyrazol-4-yl)-2-(N,S-dimethylsulfonimidoyl)phenyl]-N6-(2,6-dimethylpyrimidin-4-yl)pyrimidine-4,6-diamine]: the Kd in experiment [1] was less than 0.2 nM. Further, the IC50 in experiment [2] is less than 10 nM.

In turn, `Cc1cc(Nc2cc(Nc3ccc(C4CCCO4)cc3N(C)S(C)(=O)=O)ncn2)nc(C)n1` (stereo not shown) [Example 114, N-[2-[[6-[(2,6-dimethylpyrimidin-4-yl)amino]pyrimidin-4-yl]amino]-5-tetrahydrofuran-2-yl-phenyl]-N-methyl-methanesulfonamide] gave a Kd in experiment [1] of less than 0.2 nM. Further, the IC50 in experiment [2] is less than 10 nM.

Turning to `COCc1ccc(Nc2cc(Nc3cc(C)nc(C)n3)ncn2)c(N(C)S(C)(=O)=O)c1` [Example 115, N-[2-[[6-[(2,6-dimethylpyrimidin-4-yl)amino]pyrimidin-4-yl]amino]-5-(methoxymethyl)phenyl]-N-methyl-methanesulfonamide], in experiment [1], the Kd was less than 0.2 nM. Also, in experiment [2], the IC50 is less than 10 nM.

With `CN=S(C)(=O)c1c(C)cccc1Nc1cc(Nc2cc(C)nc(C)n2)ncn1` (stereo not shown) [Example 116, N6-(2,6-dimethylpyrimidin-4-yl)-N4-[2-(N,S-dimethylsulfonimidoyl)-3-methyl-phenyl]pyrimidine-4,6-diamine], the Kd in experiment [1] was in the range of 0.2 to 1 nM. Moreover, in experiment [2], the IC50 was in the range of 10 to 100 nM.

In experiment [1], `COc1cc(C2CCOC2)ccc1Nc1cc(Nc2cc(C)nc(C)n2)ncn1` (stereo not shown) [Example 117, N4-(2,6-dimethylpyrimidin-4-yl)-N6-(2-methoxy-4-tetrahydrofuran-3-yl-phenyl)pyrimidine-4,6-diamine] registered a Kd of 1 to 10 nM. Also, the IC50 in experiment [2] is more than 1000 nM.

In the case of `Cc1cc(Nc2cc(Nc3ncccc3N(C)S(C)(=O)=O)ncn2)nc(C)n1` [Example 120, N-[2-[[6-[(2,6-dimethylpyrimidin-4-yl)amino]pyrimidin-4-yl]amino]-3-pyridyl]-N-methyl-methanesulfonamide], the Kd in experiment [1] was less than 0.2 nM. Moreover, the IC50 in experiment [2] was in the range of 10 to 100 nM.

`[2H]C([2H])([2H])N(c1cccnc1Nc1cc(Nc2cc(C)nc(C)n2)ncn1)S(C)(=O)=O` [Example 121, N-[2-[[6-[(2,6-dimethylpyrimidin-4-yl)amino]pyrimidin-4-yl]amino]-3-pyridyl]-N-(trideuteriomethyl)methanesulfonamide] had a Kd in experiment [1] of less than 0.2 nM. Besides, in experiment [2], the IC50 lay within 10 to 100 nM.

`Cc1cc(Nc2cc(Nc3ncc(-c4nc(C(F)(F)F)n(C)n4)cc3N(C)S(C)(=O)=O)ncn2)nc(C)n1` [Example 122, N-[2-[[6-[(2,6-dimethylpyrimidin-4-yl)amino]pyrimidin-4-yl]amino]-5-[1-methyl-5-(trifluoromethyl)-1,2,4-triazol-3-yl]-3-pyridyl]-N-methyl-methanesulfonamide] showed a Kd in experiment [1] of less than 0.2 nM. Also, the IC50 in experiment [2] was in the range of 10 to 100 nM.

On to `Cc1cc(Nc2cc(Nc3ncc(-c4ncn(C)n4)cc3N(C)S(C)(=O)=O)ncn2)nc(C)n1` [Example 123, N-[2-[[6-[(2,6-dimethylpyrimidin-4-yl)amino]pyrimidin-4-yl]amino]-5-(1-methyl-1,2,4-triazol-3-yl)-3-pyridyl]-N-methyl-methanesulfonamide], for which the dissociation constant (Kd) in experiment [1] is 1 to 10 nM. In addition, in experiment [2], the IC50 fell in the range of 10 to 100 nM.

On to `Cc1cc(Nc2cc(Nc3ncc(-c4ccnn4C)cc3N(C)S(C)(=O)=O)ncn2)nc(C)n1` [Example 127, N-[2-[[6-[(2,6-dimethylpyrimidin-4-yl)amino]pyrimidin-4-yl]amino]-5-(2-methylpyrazol-3-yl)-3-pyridyl]-N-methyl-methanesulfonamide], for which, in experiment [1], the Kd lay within 0.2 to 1 nM. The half-maximal inhibitory concentration (IC50) in experiment [2] was 10 to 100 nM.
